Reference: US20260262643A1, “HERBICIDAL BENZOXAZINES” (FMC CORPORATION, priority 2022, published 2026)

What was measured:
ryegrass, Italian [1] = experiment: Test C preemergence; type: in vivo, Lolium multiflorum
Summary of the method: (§1)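 Test material, in non-phytotoxic solvent with surfactant, was sprayed on the soil directly after seeding (preemergence) or on young plants of 2–10 cm with one to two leaves (postemergence). Greenhouse, 10 days; 0–100 visual control scale.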

kochia [2] = experiment: Test C preemergence; type: in vivo, Bassia scoparia
Summary of the method: as §1

oat, wild [3] = experiment: Test C postemergence; type: in vivo, Avena fatua; conditions: 10 days, 0 to 100 scale (0 no effect, 100 complete control)
Summary of the method: as §1

pigweed, palmer [4] = experiment: Test C postemergence; type: in vivo, Amaranthus palmeri; conditions: 10 days, 0 to 100 scale (0 no effect, 100 complete control)
Summary of the method: as §1

foxtail, giant [5] = experiment: Test C postemergence; type: in vivo, Setaria faberi; conditions: 10 days, 0 to 100 scale (0 no effect, 100 complete control)
Summary of the method: as §1

blackgrass [6] = experiment: Test C postemergence; type: in vivo, Alopecurus myosuroides; conditions: 10 days, 0 to 100 scale (0 no effect, 100 complete control)
Summary of the method: as §1

oat, wild [7] = experiment: Test C preemergence; type: in vivo, Avena fatua
Summary of the method: as §1

rice = experiment: Test D flooded paddy test; type: in vivo, Oryza sativa; conditions: 250 g ai/ha, applied to paddy water, visual rating after 13 to 14 days, scale 0 to 100 (0 no effect, 100 complete control)
Summary of the method: (§2)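 Seedlings reached the 2-leaf stage, then pots were flooded to 3 cm over the soil surface. Compound was applied into the water, depth was maintained, and plants stayed in the greenhouse 13 to 14 days before visual scoring (0–100) relative to controls.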

ragweed [8] = experiment: Test C preemergence; type: in vivo, Ambrosia artemisiifolia
Summary of the method: as §1

soybean [9] = experiment: Test C preemergence; type: in vivo, Glycine max
Summary of the method: as §1

corn [10] = experiment: Test C postemergence; type: in vivo, Zea mays; conditions: 10 days, 0 to 100 scale (0 no effect, 100 complete control)
Summary of the method: as §1

galium = experiment: Test C postemergence; type: in vivo, Galium aparine; conditions: 10 days, 0 to 100 scale (0 no effect, 100 complete control)
Summary of the method: as §1

ragweed [11] = experiment: Test C postemergence; type: in vivo, Ambrosia artemisiifolia; conditions: 10 days, 0 to 100 scale (0 no effect, 100 complete control)
Summary of the method: as §1

barnyardgrass [12] = experiment: Test D flooded paddy test; type: in vivo, Echinochloa crus-galli; conditions: 250 g ai/ha, applied to paddy water, visual rating after 13 to 14 days, scale 0 to 100 (0 no effect, 100 complete control)
Summary of the method: as §2

barnyardgrass [13] = experiment: Test C preemergence; type: in vivo, Echinochloa crusgalli
Summary of the method: as §1

barnyardgrass [14] = experiment: Test C postemergence; type: in vivo, Echinochloa crusgalli; conditions: 10 days, 0 to 100 scale (0 no effect, 100 complete control)
Summary of the method: as §1

corn [15] = experiment: Test C preemergence; type: in vivo, Zea mays
Summary of the method: as §1

sedge, umbrella = experiment: Test D flooded paddy test; type: in vivo, Cyperus difformis; conditions: 250 g ai/ha, applied to paddy water, visual rating after 13 to 14 days, scale 0 to 100 (0 no effect, 100 complete control)
Summary of the method: as §2

kochia [16] = experiment: Test C postemergence; type: in vivo, Bassia scoparia; conditions: 10 days, 0 to 100 scale (0 no effect, 100 complete control)
Summary of the method: as §1

wheat [17] = experiment: Test C postemergence; type: in vivo, Triticum aestivum; conditions: 10 days, 0 to 100 scale (0 no effect, 100 complete control)
Summary of the method: as §1

foxtail, giant [18] = experiment: Test C preemergence; type: in vivo, Setaria faberi
Summary of the method: as §1

ducksalad = experiment: Test D flooded paddy test; type: in vivo, Heteranthera limosa; conditions: 250 g ai/ha, applied to paddy water, visual rating after 13 to 14 days, scale 0 to 100 (0 no effect, 100 complete control)
Summary of the method: as §2

pigweed, palmer [19] = experiment: Test C preemergence; type: in vivo, Amaranthus palmeri
Summary of the method: as §1

horseweed = experiment: Test C postemergence; type: in vivo, Erigeron canadensis; conditions: 10 days, 0 to 100 scale (0 no effect, 100 complete control)
Summary of the method: as §1

ryegrass, Italian [20] = experiment: Test C postemergence; type: in vivo, Lolium multiflorum; conditions: 10 days, 0 to 100 scale (0 no effect, 100 complete control)
Summary of the method: as §1

soybean [21] = experiment: Test C postemergence; type: in vivo, Glycine max; conditions: 10 days, 0 to 100 scale (0 no effect, 100 complete control)
Summary of the method: as §1

blackgrass [22] = experiment: Test C preemergence; type: in vivo, Alopecurus myosuroides
Summary of the method: as §1

wheat [23] = experiment: Test C preemergence; type: in vivo, Triticum aestivum
Summary of the method: as §1

[24] = 500 g ai/ha, preemergence, 0 to 100 scale (0 no effect, 100 complete control)
[25] = Preemergence, 125 g ai/ha, 0 to 100 scale, 0 no effect, 100 complete control

Compound: Cc1ncn(-c2cc(C(=O)N3CC(C(F)(F)F)Oc4c(Cl)cccc43)ccn2)n1 (stereo not shown) [Compound 321]
- Ryegrass, Italian plant response rating (ryegrass, Italian [1]; [24]): 100
- Plant response rating, Ryegrass, Italian (ryegrass, Italian [1]; [25]): 90
- Kochia plant response rating (kochia [2]; [24]): 90
- Plant response rating, Kochia (kochia [2]; [25]): 20
- Plant response rating, Oat, Wild (oat, wild [3]; 500 g ai/ha, postemergence): 90
- Plant response rating, Oat, Wild (oat, wild [3]; Postemergence, 125 g ai/ha): 10
- Plant response rating, Pigweed, Palmer (pigweed, palmer [4]; 500 g ai/ha, postemergence): 60
- Plant response rating, Pigweed, Palmer (pigweed, palmer [4]; Postemergence, 125 g ai/ha): 10
- Plant response rating, Foxtail, Giant (foxtail, giant [5]; 500 g ai/ha, postemergence): 90
- Plant response rating, Foxtail, Giant (foxtail, giant [5]; Postemergence, 125 g ai/ha): 70
- Plant response rating, Blackgrass (blackgrass [6]; 500 g ai/ha, postemergence): 90
- Plant response rating, Blackgrass (blackgrass [6]; Postemergence, 125 g ai/ha): 60
- Oat, Wild plant response rating (oat, wild [7]; [24]): 80
- Plant response rating, Oat, Wild (oat, wild [7]; [25]): 0
- Plant response rating, Rice (Flood) (rice): 0
- Ragweed plant response rating (ragweed [8]; [24]): 80
- Plant response rating, Ragweed (ragweed [8]; [25]): 0
- Soybean plant response rating (soybean [9]; [24]): 40
- Plant response rating, Soybean (soybean [9]; [25]): 0
- Plant response rating, Corn (corn [10]; 500 g ai/ha, postemergence): 90
- Plant response rating, Corn (corn [10]; Postemergence, 125 g ai/ha): 50
- Plant response rating, Galium (galium; 500 g ai/ha, postemergence): 100
- Plant response rating, Galium (galium; Postemergence, 125 g ai/ha): 100
- Plant response rating, Ragweed (ragweed [11]; 500 g ai/ha, postemergence): 40
- Plant response rating, Ragweed (ragweed [11]; Postemergence, 125 g ai/ha): 30
- Plant response rating, Barnyardgrass (Flood) (barnyardgrass [12]): 0
- Barnyardgrass plant response rating (barnyardgrass [13]; [24]): 100
- Plant response rating, Barnyardgrass (barnyardgrass [13]; [25]): 40
- Plant response rating, Barnyardgrass (barnyardgrass [14]; 500 g ai/ha, postemergence): 90
- Plant response rating, Barnyardgrass (barnyardgrass [14]; Postemergence, 125 g ai/ha): 20
- Corn plant response rating (corn [15]; [24]): 40
- Plant response rating, Corn (corn [15]; [25]): 10
- Plant response rating, Sedge, Umbrella (Flood) (sedge, umbrella): 0
- Plant response rating, Kochia (kochia [16]; 500 g ai/ha, postemergence): 80
- Plant response rating, Kochia (kochia [16]; Postemergence, 125 g ai/ha): 60
- Plant response rating, Wheat (wheat [17]; 500 g ai/ha, postemergence): 80
- Plant response rating, Wheat (wheat [17]; Postemergence, 125 g ai/ha): 20
- Foxtail, Giant plant response rating (foxtail, giant [18]; [24]): 100
- Plant response rating, Foxtail, Giant (foxtail, giant [18]; [25]): 100
- Plant response rating, Ducksalad (Flood) (ducksalad): 0
- Pigweed, Palmer plant response rating (pigweed, palmer [19]; [24]): 100
- Plant response rating, Pigweed, Palmer (pigweed, palmer [19]; [25]): 50
- Plant response rating, Horseweed (horseweed; 500 g ai/ha, postemergence): 0
- Plant response rating, Horseweed (horseweed; Postemergence, 125 g ai/ha): 0
- Plant response rating, Ryegrass, Italian (ryegrass, Italian [20]; 500 g ai/ha, postemergence): 80
- Plant response rating, Ryegrass, Italian (ryegrass, Italian [20]; Postemergence, 125 g ai/ha): 60
- Plant response rating, Soybean (soybean [21]; 500 g ai/ha, postemergence): 100
- Plant response rating, Soybean (soybean [21]; Postemergence, 125 g ai/ha): 90
- Blackgrass plant response rating (blackgrass [22]; [24]): 90
- Plant response rating, Blackgrass (blackgrass [22]; [25]): 80
- Wheat plant response rating (wheat [23]; [24]): 30
- Plant response rating, Wheat (wheat [23]; [25]): 10
